Values joined by “and” are separate entries in the source; they are usually repeats but may differ in a detail not shown here. Equal entries are not always repeated. Where two headings read alike, the source gives them in different places. Peptide text beside a SMILES is read from it.
Experiments:
[1] = Micro-SPECT/CT imaging and distribution of 125I-labeled pHLIPs; assay type: in vivo; conditions: female, mouse, total radioactivity, 4T1 tumor-bearing nude mice, 3.7 MBq iv, micro-SPECT/CT ROI, mean ± SD, n = 4; for tissue uptake at 4 h: 4 h pi; for tissue uptake at 24 h: 24 h pi; for tissue uptake at 48 h: 48 h pi; for tissue uptake at 1 h: 1 h pi; for tissue uptake at 2 h: 2 h pi
Protocol: (§1) Five-week-old female athymic BALB/c nude mice (Shanghai Slaccas Experiment Animal Corp., Shanghai, China) were used in our study. Mouse xenograft models of MDA-MB-231, 4T1, and SK-BR-3 cells were produced by the subcutaneous injection of 5 × 10^6 cells (suspended in 150 μL PBS) into the right axilla of each mouse. The mice were used in subsequent experiments when tumor diameter reached 0.5-0.9 cm. The study protocol was approved by the institutional review board and by the Experimental Animal Center of Ruijin Hospital affiliated to the School of Medicine of Shanghai Jiao Tong University.
(§2) Three days before micro-SPECT/CT imaging, 300 μL of 1% Kl solution was administered to mice by oral gavage once a day, and 0.1% Kl was added into the drinking water to block thyroid gland activity. Mice-bearing MDA-MB-231, 4T1, or SK-BR-3 tumors were intravenously injected with 3.7 MBq of ^125I-WT-pHLIP or ^125I-Var3-pHLIP. Each group contained four mice. The mice were anesthetized by isoflurane inhalation, placed in the prone position, and scanned using a four-head SPECT/CT system (U-SPECT/CT, MI-Lab, Netherlands) and dedicated multipinhole apertures with a diameter of 1.5 mm at 1, 2, 4, 24, and 48 h after injection of ^125I-labeled peptides. CT images were acquired after static SPECT imaging (10 min/frame). The images were reconstructed using U-SPECT REC software and analyzed using PMOD software version 3.9 (Switzerland). Regions of interest (ROIs) were drawn in the tumors and organs, including the brain, heart, liver, lungs, kidneys, intestine, and bladder, at various time points. The radioactivity per gram (ID%/g) in the ROIs was measured to obtain the dynamic tumor-to-background ratio (TBR, muscle tissue was used as the background) and the in vivo distribution and kinetics of ^125I-WT-pHLIP and ^125I-Var3-pHLIP in the xenograft models of BC.

[2] = tested on: MDA-MB-231 tumor-bearing nude mice; test: as above; assay type: in vivo, mouse; conditions: MDA-MB-231 xenografts
Protocol: as §1, §2

[3] = tested on: SK-BR-3 tumor-bearing nude mice; test: as above; assay type: in vivo, mouse
Protocol: as §1, §2

[4] = In vitro stability of radiolabeled peptides in serum at 37°C; assay type: in vitro ADME; conditions: 37°C in serum, radiochemical purity, thin-layer chromatography
Protocol: WT-pHLIP and Var3-pHLIP were labeled with ^125I for in vivo imaging experiments, and Var3-pHLIP was labeled with ^131I for therapeutic efficacy experiments. Radioactive iodine binds to tyrosine residues in pHLIPs. Peptides were dissolved in 200 μL of 0.02 M PBS (pH 7.4) to reach a concentration of 1 mg/mL and mixed with 10 μL of Na^125I (74 MBq) or 20 μL of Na^131I (925 MBq). Chloramine-T (20 μL, 5 mg/mL) was added to the test tubes and mixed for 70 s at room temperature. The reaction was stopped by adding 200 μL of sodium metabisulfite (5 mg/mL). The peptides were eluted in ethanol through a C18 column equilibrated with 20 mL of 100% ethanol and 20 mL of distilled water. The radioactive purity of ^125I-WT-pHLIP, ^125I-Var3-pHLIP, and ^131I-Var3-pHLIP was determined using thin-layer chromatography. Furthermore, the radiochemical purity of ^125I-WT-pHLIP, ^125I-Var3-pHLIP, and ^131I-Var3-pHLIP was measured, and chemical stability was determined at 24 and 48 h at room temperature (25°C) in PBS and at 37°C in serum.

[5] = BALB/c nude, read-out: Distribution, Tumor
[6] = athymic BALB/c nude, bladder, read-out: Distribution, Bladder
[7] = athymic BALB/c nude, brain, read-out: Distribution, Brain
[8] = athymic BALB/c nude, heart, read-out: Distribution, Heart
[9] = athymic BALB/c nude, intestine, read-out: Distribution, Intestine
[10] = athymic BALB/c nude, kidney, read-out: Distribution, Kidney
[11] = athymic BALB/c nude, liver, read-out: Distribution, Liver
[12] = athymic BALB/c nude, lung, read-out: Distribution, Lung
[13] = athymic BALB/c nude, muscle, read-out: Distribution, Muscle

## CC(C)C[C@H](NC(=O)[C@H](Cc1ccc(O)c(I)c1)NC(=O)[C@H](C)NC(=O)[C@H](CCCNC(=N)N)NC(=O)[C@H](Cc1c[nH]c2ccccc12)NC(=O)[C@@H]1CCCN1C(=O)[C@H](CC(N)=O)NC(=O)[C@H](CCC(N)=O)NC(=O)[C@H](CC(=O)O)NC(=O)[C@H](CC(=O)O)NC(=O)[C@H](CS)NC(=O)[C@H](C)N)C(=O)N[C@@H](CC(=O)O)C(=O)N[C@@H](CC(C)C)C(=O)N[C@@H](CC(C)C)C(=O)N[C@@H](Cc1ccccc1)C(=O)N1CCC[C@H]1C(=O)N[C@H](C(=O)N[C@@H](CC(=O)O)C(=O)N[C@H](C(=O)N[C@@H](CC(C)C)C(=O)N[C@@H](CC(C)C)C(=O)N[C@@H](CC(C)C)C(=O)N[C@@H](CC(=O)O)C(=O)N[C@@H](CC(C)C)C(=O)N[C@@H](CC(C)C)C(=O)N[C@@H](Cc1c[nH]c2ccccc12)C(=O)N[C@@H](CCCCN)C(=O)O)[C@@H](C)O)[C@@H](C)O [125I-Var3-pHLIP] (HELM PEPTIDE1{A.C.D.D.Q.N.P.W.R.A.[O=C([C@H](Cc1ccc(O)c(I)c1)N[*:1])[*:2]].L.D.L.L.F.P.T.D.T.L.L.L.D.L.L.W.K}$$$$V2.0; N-terminus and C-terminus assumed)
[1]; [5]
  tissue uptake at 4 h: 3.4 ± 0.73 %ID/g
  tissue uptake at 24 h: 0.21 ± 0.07 %ID/g
  tissue uptake at 48 h: 0.12 ± 0.04 %ID/g
[1]; [6]
  tissue uptake at 1 h: 33.7 ± 21.1 %ID/g
  tissue uptake at 2 h: 24.9 ± 10.8 %ID/g
  tissue uptake at 4 h: 42.7 ± 17.6 %ID/g
  tissue uptake at 24 h: 2.83 ± 1.65 %ID/g
  tissue uptake at 48 h: 0.21 ± 0.13 %ID/g
[1]; [7]
  tissue uptake at 1 h: 1.44 ± 0.24 %ID/g
  tissue uptake at 2 h: 1.32 ± 0.49 %ID/g
  tissue uptake at 4 h: 1.04 ± 0.47 %ID/g
  tissue uptake at 24 h: 0.16 ± 0.1 %ID/g
  tissue uptake at 48 h: 0.13 ± 0.09 %ID/g
[1]; [8]
  tissue uptake at 1 h: 14.4 ± 2.44 %ID/g
  tissue uptake at 2 h: 11 ± 2.39 %ID/g
  tissue uptake at 4 h: 8.21 ± 2.03 %ID/g
  tissue uptake at 24 h: 0.36 ± 0.16 %ID/g
  tissue uptake at 48 h: 0.17 ± 0.05 %ID/g
[1]; [9]
  tissue uptake at 1 h: 3.65 ± 0.64 %ID/g
  tissue uptake at 2 h: 3.63 ± 1.19 %ID/g
  tissue uptake at 4 h: 3.23 ± 0.7 %ID/g
  tissue uptake at 24 h: 0.28 ± 0.15 %ID/g
  tissue uptake at 48 h: 0.14 ± 0.11 %ID/g
[1]; [10]
  tissue uptake at 1 h: 7.98 ± 3.12 %ID/g
  tissue uptake at 2 h: 7.97 ± 2.23 %ID/g
  tissue uptake at 4 h: 4.99 ± 2.04 %ID/g
  tissue uptake at 24 h: 0.39 ± 0.3 %ID/g
  tissue uptake at 48 h: 0.2 ± 0.13 %ID/g
[1]; [11]
  tissue uptake at 1 h: 14.9 ± 3.55 %ID/g
  tissue uptake at 2 h: 13.2 ± 2.28 %ID/g
  tissue uptake at 4 h: 12.6 ± 3.61 %ID/g
  tissue uptake at 24 h: 0.6 ± 0.16 %ID/g
  tissue uptake at 48 h: 0.23 ± 0.04 %ID/g
[1]; [12]
  tissue uptake at 1 h: 13.8 ± 3.09 %ID/g
  tissue uptake at 2 h: 11.3 ± 3.09 %ID/g
  tissue uptake at 4 h: 9.4 ± 2.45 %ID/g
  tissue uptake at 24 h: 0.48 ± 0.15 %ID/g
  tissue uptake at 48 h: 0.19 ± 0.1 %ID/g
[1]; [13]
  tissue uptake at 1 h: 1.41 ± 0.61 %ID/g
  tissue uptake at 2 h: 1.03 ± 0.19 %ID/g
  tissue uptake at 4 h: 0.8 ± 0.26 %ID/g
  tissue uptake at 24 h: 0.06 ± 0.04 %ID/g
  tissue uptake at 48 h: 0.03 ± 0.03 %ID/g
[1]; athymic BALB/c nude, read-out: Distribution, Tumor
  tissue uptake at 1 h: 4.26 ± 1.24 %ID/g
[2]
  time after injection at which radioactive count in xenografts peaked: 2 h
[3]; SK-BR-3 tumor-bearing nude mice, 2 h pi, 3.7 MBq iv, micro-SPECT/CT ROI, mean ± SD, n = 4
  Distribution, Tumor: 2.93 ± 0.71 %ID/g and 2.93 ± 0.70 %ID/g
[3]; SK-BR-3 xenografts
  time after injection at which radioactive count in xenografts peaked: 2 h
[4]; 24 h
  stability: 83.2%
[4]; 48 h
  stability: 82.6%
